Data set [1] concerns Male obese-diabetic viable yellow (A^vy) mice. Nature of the data set: Serum/plasma triglycerides after 14 days in the same feeding study. The conditions noted are these: untreated about 4 mmol/mL. It is filed as in vivo. On the procedure: (§1) Male obese-diabetic viable yellow (A^vy) mice were divided into two groups of 6 each. One group was fed repelletized Purina 5008 Chow and the second group was fed a repelletized chow consisting of Purina 5008 Chow, admixed with varying doses of the candidate compound. Blood samples were taken before the experiment was initiated and 14 days after initiation. Body weight and food consumption were monitored. The blood glucose level after 14 days of treatment was measured and recorded as a percent of the initial value, compared to the untreated control (first) group. The results are presented in the table below and include the dose of the candidate compound as a weight percent of the amount incorporated into the diet. The positive control is a known hypoglycemic agent (J. Med. Chem. 35:2617, 1992) administered in the same way as a compound of the present invention.
In the same feeding study described above, plasma triglycerides were measured against a glycerol standard using reagents from Sigma Kit No. 339 (St. Louis, Mo.), adapted for assay on the Monarch System (Instrumentation Laboratory, Lexington, Mass.). Day 14 levels are recorded below as mM of triglycerides per mL. Serum triglyceride values for untreated animals averaged about 4 mmol/mL.

Data set [2] has the same test system. Nature of the data set: Serum/blood glucose after 14 days of feeding compound admixed in chow. The class given is in vivo. The procedure:
as §1

Where [3] appears, read: dose 0.03 (mg/100 g food) in diet.
Where [4] appears, read: dose 0.01 (mg/100 g food) in diet.

“4-[2-(2-Phenyl-4-oxazolyl)ethoxy]benzyl-N-CBZ-L-serine [Example No. 7]”: the Serum Triglyceride after 14 days in data set [1] (setting [3]) is 0.4 mM. Besides, in data set [2] (setting [3]), the “Serum Glucose after 14 days % of day 0 value” (shortened to “Serum Glucose after 14 days %”) was 34 % of day 0 value.

Turning to `Cc1oc(-c2ccccc2)nc1CCOc1ccc(CC(NC(=O)OCc2ccccc2)C(=O)O)cc1` (racemic) [Example No. 9, O-[2-(5-Methyl-2-phenyl-4-oxazolyl)ethyl]-N-CBZ-D,L-tyrosine], the melting point (as a rule, the temperature of the solid-liquid transition) fell in the range of 142 to 143 °C. The same compound registered a Serum Triglyceride after 14 days in data set [1] (setting [3]) of 2.5 mM. Moreover, the “Serum Glucose after 14 days %” value in data set [2] (setting [3]) is on record as 66 % of day 0 value.

As for `N[C@@H](Cc1ccc(OCCc2coc(-c3ccccc3)n2)cc1)C(=O)O` [Example 3, O-[2-(2-Phenyl-4-oxazolyl)ethyl]-L-tyrosine], the melting point is 231 to 235 °C.

`N[C@@H](Cc1ccc(OCCc2coc(-c3ccccc3)n2)cc1)C(=O)N(O)C(=O)OCc1ccccc1` [Example 11, O-[2-(2-Phenyl-4-oxazolyl)ethyl]-N-CBZ-L-tyrosine hydroxamic acid] displayed a melting point of 198 to 199 °C.

Turning to `O=C(COc1ccccc1)N[C@@H](Cc1ccc(OCCc2coc(-c3ccccc3)n2)cc1)C(=O)O` [Example 12, O-[2-(2-Phenyl-4-oxazolyl)ethyl]-N-phenoxyacetyl-L-tyrosine], the melting point was 94 to 97 °C.

The compound `O=C(N[C@@H](Cc1ccc(OCCc2coc(-c3ccccc3)n2)cc1)C(=O)O)c1ccc(Cl)cc1` [Example 13, O-[2-(2-Phenyl-4-oxazolyl)ethyl]-N-4-chlorobenzoyl-L-tyrosine] had a melting point of 158 to 161 °C.

`O=C(O)[C@H](Cc1ccc(OCCc2coc(-c3ccccc3)n2)cc1)NS(=O)(=O)Cc1ccccc1` [Example 14, O-[2-(2-Phenyl-4-oxazolyl)ethyl]-N-phenylmethylsulfonyl-L-tyrosine] came in with a melting point of 141 to 143 °C.

The compound `O=C(N[C@@H](Cc1ccc(OCCc2cccc3ccccc23)cc1)C(=O)O)OCc1ccccc1` [Example 15, O-[2-(1-Naphthyl)ethyl]-N-CBZ-L-tyrosine] showed a melting point of 80 to 83 °C.

Turning to `O=C(N[C@@H](Cc1ccc(OCCc2coc(-c3ccccc3)n2)cc1)C(=O)O)OCc1ccc(Br)cc1` [Example 16, O-[2-(2-Phenyl-4-oxazolyl)ethyl]-N-(4-bromobenzyloxycarbonyl)-L-tyrosine], the melting point is 173 to 176 °C.

As to `O=C(N[C@@H](Cc1ccc(OCCc2coc(-c3ccccc3)n2)cc1)C(=O)O)OCc1ccc(C(F)(F)F)cc1` [Example 17, O-[2-(2-Phenyl-4-oxazolyl)ethyl]-N-(4-trifluoromethylbenzyloxycarbonyl)-L-Tyrosine], the melting point lay in the range of 177 to 180.5 °C.

`COc1ccc(COC(=O)N[C@@H](Cc2ccc(OCCc3coc(-c4ccccc4)n3)cc2)C(=O)O)cc1` [Example 18, O-[2-(2-Phenyl-4-oxazolyl)ethyl]-N-(4-methoxybenzyloxycarbonyl)-L-tyrosine] came in with a melting point of 132.5 to 135.5 °C.

`CCCCc1ccc(COC(=O)N[C@@H](Cc2ccc(OCCc3coc(-c4ccccc4)n3)cc2)C(=O)O)cc1` [Example 19, O-[2-(2-Phenyl-4-oxazolyl)ethyl]-N-(4-n-Butylbenzyloxycarbonyl)-L-tyrosine] returned a melting point of 86 to 89 °C.

`O=C(NCc1ccccc1)N[C@@H](Cc1ccc(OCCc2coc(-c3ccccc3)n2)cc1)C(=O)O` [Example 20, O-[2-(2-Phenyl-4-oxazolyl)ethyl]-N-(N′-Benzylcarbamoyl)-L-tyrosine] came in with a melting point of 196.5 to 198 °C.

Turning to `O=C(N[C@@H](Cc1ccc(OCCc2coc(-c3ccccc3)n2)cc1)C(=O)O)OCc1ccccc1` [Example No. 1, O-[2-(2-Phenyl-4-oxazolyl)ethyl]-N-CBZ-L-tyrosine], the melting point was in the range of 105 to 111 °C. The compound further gave a Serum Triglyceride after 14 days in data set [1] (setting [3]) of 1.3 mM. Moreover, the “Serum Glucose after 14 days %” value in data set [2] (setting [3]) is 49 % of day 0 value.

Turning to `O=C(N[C@@H](Cc1ccc(OCCc2coc(-c3ccccc3)n2)cc1)C(=O)[O-])OCc1ccccc1.[Na+]` [Example No. 2, O-[2-(2-Phenyl-4-oxazolyl)ethyl]-N-CBZ-L-tyrosine, sodium salt], the melting point fell in the range of 204 to 207 °C. The same compound yielded a Serum Triglyceride after 14 days in data set [1] (setting [3]) of 3.3 mM. Further, the “Serum Glucose after 14 days %” value in data set [2] (setting [3]) is 67 % of day 0 value.

Regarding `O=C(N[C@@H](Cc1ccc(OCCc2coc(-c3ccccc3)n2)cc1)C(=O)O)c1ccccc1` [Example No. 4, O-[2-(2-Phenyl-4-oxazolyl)ethyl]-N-BZ-L-tyrosine], the Serum Triglyceride after 14 days in data set [1] (setting [3]) is 1.5 mM. In addition, the “Serum Glucose after 14 days %” value in data set [2] (setting [3]) is reported as 60 % of day 0 value.

With `O=C(Cc1ccccc1)N[C@@H](Cc1ccc(OCCc2coc(-c3ccccc3)n2)cc1)C(=O)O` [Example No. 5, O-[2-(2-Phenyl-4-oxazolyl)ethyl]-N-phenylacetyl-L-tyrosine], the melting point was in the range of 146 to 151 °C. The “Serum Glucose after 14 days %” value in data set [2] (setting [3]) is reported as 57 % of day 0 value.

For the compound `Cc1ccc(C(=O)N[C@@H](Cc2ccc(OCCc3coc(-c4ccccc4)n3)cc2)C(=O)O)cc1` [Example No. 6, O-[2-(2-Phenyl-4-oxazolyl)ethyl]-N-4-methylbenzoyl-L-tyrosine], the melting point fell in the range of 180 to 182 °C. This compound also had a Serum Triglyceride after 14 days in data set [1] (setting [3]) of 2.3 mM. For the same compound, the “Serum Glucose after 14 days %” value in data set [2] (setting [3]) is on record as 65 % of day 0 value.

The compound `CN(C(=O)OCc1ccccc1)[C@@H](Cc1ccc(OCCc2coc(-c3ccccc3)n2)cc1)C(=O)O` [Example No. 8, O-[2-(2-Phenyl-4-oxazolyl)ethyl]-N-methyl-N-CBZ-L-tyrosine] returned a Serum Triglyceride after 14 days in data set [1] (setting [3]) of 3.6 mM. Besides, the “Serum Glucose after 14 days %” value in data set [2] (dose 0.06 (mg/100 g food) in diet) is listed as 75 % of day 0 value.

Regarding `NC(=O)[C@H](Cc1ccc(OCCc2coc(-c3ccccc3)n2)cc1)NC(=O)OCc1ccccc1` [Example No. 10, O-[2-(2-Phenyl-4-oxazolyl)ethyl]-N-CBZ-L-tyrosine carboxamide], the “Serum Glucose after 14 days %” value in data set [2] (setting [3]) is recorded as 88 % of day 0 value.

For `O=C(NC(Cc1cccc(OCCc2coc(-c3ccccc3)n2)c1)C(=O)O)OCc1ccccc1` (stereo not drawn) [Example No. 21, α-(3-[2-(2-Phenyl-4-oxazolyl)ethoxy]benzyl)-N-CBZ glycine], the melting point is 149 to 151 °C (dec.). The compound also returned a Serum Triglyceride after 14 days in data set [1] (setting [3]) of 1.4 mM. Besides, the “Serum Glucose after 14 days %” value in data set [2] (setting [3]) is on record as 48 % of day 0 value.

In turn, `Cc1oc(-c2ccccc2)nc1CCOc1ccc(C[C@H](NC(=O)OCc2ccccc2)C(=O)O)cc1` [Example No. 22, O-[2-(5-Methyl-2-phenyl-4-oxazolyl)ethyl]-N-CBZ-L-tyrosine] yielded a melting point of 75 to 95 °C. The “Serum Glucose after 14 days %” value in data set [2] (setting [3]) is recorded as 53 % of day 0 value.

Consider `O=C(N[C@@H](COCc1cccc(OCCc2coc(-c3ccccc3)n2)c1)C(=O)O)OCc1ccccc1` [Example No. 24, O-(3-(2-(2-Phenyl-4-oxazolyl)ethoxy]benzyl)-N-CBZ serine], for which the melting point lay within 55 to 57 °C. The same compound showed a Serum Triglyceride after 14 days in data set [1] (setting [4]) of 0.3 mM. In addition, the “Serum Glucose after 14 days %” value in data set [2] (setting [4]) is on record as 88 % of day 0 value.

Compound `CC(C)(Oc1ccc(Cl)cc1)C(=O)O` [clofibric acid, reference compound] gave a Serum Triglyceride after 14 days in data set [1] (dose 0.10 (mg/100 g food) in diet) of 1.9 mM.

Values taken from patent US6541497B1, “Hypoglycemic and hypolipidemic compounds” (Eli Lilly and Company, priority 1996, dated 2003).
